Results published in patent US8987195B2 (priority 2012, dated 2015).
Like-named read-outs stand apart in the source and are kept apart here.

How the values were obtained:
[1] = biological target: HCV NS3/4A protease genotype 1b (Hepatitis C virus genotype 1b, UniProt P26663); test: HCV NS3/4A protease time-resolved fluorescence (TRF) assay, Ki against genotype 1b; format: biochemical; conditions: IC50 [gt-1b] (nM), NS3/4A genotype 1b, enzyme 0.2 nM
Procedure, shortened: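 NS3/4A enzyme was preincubated 30 min with inhibitor in 50 mM HEPES pH 7.5, 150 mM NaCl, 15% glycerol, 0.15% Triton X-100, 10 mM DTT, 0.1% PEG 8000; 25 nM europium TRF peptide substrate added, 2.5 h at room temperature. Enzyme: 0.2 nM (1b), 0.4 nM (A156T), 0.025 nM (3a). Ki from IC50 via Cheng-Prusoff.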

HCV genotype 1b replicon = test: HCV replicon assay, genotype 1b replicon EC50; format: cell-based, Hepatitis C virus; conditions: genotype 1b replicon, read-out: EC50 [gt-1b]
Procedure, shortened: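 Potency comes from a four-parameter fit of signal as percent of DMSO control. Replicon-bearing cells were treated 24-48 hours with a compound dilution series in absence of G418, and replicon RNA was quantified normalized to cyclophilin A RNA, or luciferase read.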

SMILES	IC50 [1] [nM]	EC50 (HCV genotype 1b replicon; Hepatitis C virus) [nM]	EC50 (HCV genotype 1b replicon) [nM]
Cc1ccc2nc(C)c3c(c2c1)CC[C@]1(C[C@H]2C(=O)N[C@]4(C(=O)NS(=O)(=O)C5(C)CC5)C[C@H]4/C=C\CCCCC[C@H](NC(=O)OC(C)C)C(=O)N2C1)O3 [Example 109, propan-2-yl [(2R,6S,12Z,13aS,14aR,16aS)-5′,9′-dimethyl-14a-{[(1-methylcyclopropyl)sulfonyl]carbamoyl}-5,16-dioxo-1,1′,2′,5,6,7,8,9,10,11,13a,14,14a,15,16,16a-hexadecahydrospiro[cyclopropa[e]pyrrolo[1,2-a][1,4]diazacyclopentadecine-2,3′-pyrano[2,3-c]quinolin]-6-yl]carbamate]	0.011	0.944	–
CC(C)COC(=O)N[C@H]1CCCCC/C=C\[C@@H]2C[C@@]2(C(=O)NS(=O)(=O)C2(C)CC2)NC(=O)[C@@H]2C[C@]3(CCc4c(cnc5ccccc45)O3)CN2C1=O [Example 110, 2-methylpropyl [(2R,6S,12Z,13aS,14aR,16aS)-14a-{[(1-methylcyclopropyl)sulfonyl]carbamoyl}-5,16-dioxo-1,1′,2′,5,6,7,8,9,10,11,13a,14,14a,15,16,16a-hexadecahydrospiro[cyclopropa[e]pyrrolo[1,2-a][1,4]diazacyclopentadecine-2,3′-pyrano[2,3-c]quinolin]-6-yl]carbamate]	0.806	47.7	–
CC1(OC(=O)N[C@H]2CCCCC/C=C\[C@@H]3C[C@@]3(C(=O)NS(=O)(=O)C3(C)CC3)NC(=O)[C@@H]3C[C@]4(CCc5c(c(C6CC6)nc6ccccc56)O4)CN3C2=O)CCC1 [Example 111, 1-methylcyclobutyl [(2R,6S,12Z,13aS,14aR,16aS)-5′-cyclopropyl-14a-{[(1-methylcyclopropyl)sulfonyl]carbamoyl}-5,16-dioxo-1,1′,2′,5,6,7,8,9,10,11,13a,14,14a,15,16,16a-hexadecahydrospiro[cyclopropa[e]pyrrolo[1,2-a][1,4]diazacyclopentadecine-2,3′-pyrano[2,3-c]quinolin]-6-yl]carbamate]	0.011	0.685	–
Cc1nc2ccccc2c2c1O[C@@]1(C[C@H]3C(=O)N[C@]4(C(=O)NS(=O)(=O)C5(C)CC5)C[C@H]4/C=C\CCCCC[C@H](NC(=O)OC4CC(F)(F)C4(F)F)C(=O)N3C1)CC2(F)F (stereo partly drawn) [Example 112, 2,2,3,3-tetrafluorocyclobutyl [(2S,6S,12Z,13aS,14aR,16aS)-1′,1′-difluoro-5′-methyl-14a-{[(1-methylcyclopropyl)sulfonyl]carbamoyl}-5,16-dioxo-1,1′,2′,5,6,7,8,9,10,11,13a,14,14a,15,16,16a-hexadecahydrospiro[cyclopropa[e]pyrrolo[1,2-a][1,4]diazacyclopentadecine-2,3′-pyrano[2,3-c]quinolin]-6-yl]carbamate]	0.226	32	–
Cc1nc2c(C(F)(F)F)cccc2c2c1O[C@]1(CC2)C[C@H]2C(=O)N[C@]3(C(=O)NS(=O)(=O)C4(C)CC4)C[C@H]3/C=C\CCCCC[C@H](NC(=O)OCC(C)C)C(=O)N2C1 [Example 113, 2-methylpropyl [(2R,6S,12Z,13aS,14aR,16aS)-5′-methyl-14a-{[(1-methylcyclopropyl)sulfonyl]carbamoyl}-5,16-dioxo-7′-(trifluoromethyl)-1,1′,2′,5,6,7,8,9,10,11,13a,14,14a,15,16,16a-hexadecahydrospiro[cyclopropa[e]pyrrolo[1,2-a][1,4]diazacyclopentadecine-2,3′-pyrano[2,3-c]quinolin]-6-yl]carbamate]	0.298	3.95	–
Cc1nc2c(C(F)(F)F)cccc2c2c1O[C@]1(CC2)C[C@H]2C(=O)N[C@]3(C(=O)NS(=O)(=O)C4(C)CC4)C[C@H]3/C=C\CCCCC[C@H](NC(=O)OC(C)C)C(=O)N2C1 [Example 114, propan-2-yl [(2R,6S,12Z,13aS,14aR,16aS)-5′-methyl-14a-{[(1-methylcyclopropyl)sulfonyl]carbamoyl}-5,16-dioxo-7′-(trifluoromethyl)-1,1′,2′,5,6,7,8,9,10,11,13a,14,14a,15,16,16a-hexadecahydrospiro[cyclopropa[e]pyrrolo[1,2-a][1,4]diazacyclopentadecine-2,3′-pyrano[2,3-c]quinolin]-6-yl]carbamate]	0.308	3.53	–
CCOC(=O)N[C@H]1CCCCC/C=C\[C@@H]2C[C@@]2(C(=O)NS(=O)(=O)C2(C)CC2)NC(=O)[C@@H]2C[C@]3(CCc4c(c(C)nc5ccccc45)O3)CN2C1=O [Example 115, ethyl [(2R,6S,12Z,13aS,14aR,16aS)-5′-methyl-14a-{[(1-methylcyclopropyl)sulfonyl]carbamoyl}-5,16-dioxo-1,1′,2′,5,6,7,8,9,10,11,13a,14,14a,15,16,16a-hexadecahydrospiro[cyclopropa[e]pyrrolo[1,2-a][1,4]diazacyclopentadecine-2,3′-pyrano[2,3-c]quinolin]-6-yl]carbamate]	0.017	6.86	–
Cc1nc2ccccc2c2c1O[C@]1(CC2)C[C@H]2C(=O)N[C@]3(C(=O)NS(=O)(=O)C4(C)CC4)C[C@H]3/C=C\CCCCC[C@H](NC(=O)OC3(C(C)C)CC3)C(=O)N2C1 [Example 116, 1-(propan-2-yl)cyclopropyl [(2R,6S,12Z,13aS,14aR,16aS)-5′-methyl-14a-{[(1-methylcyclopropyl)sulfonyl]carbamoyl}-5,16-dioxo-1,1′,2′,5,6,7,8,9,10,11,13a,14,14a,15,16,16a-hexadecahydrospiro[cyclopropa[e]pyrrolo[1,2-a][1,4]diazacyclopentadecine-2,3′-pyrano[2,3-c]quinolin]-6-yl]carbamate]	0.008	0.312	–
Cc1nc2ccccc2c2c1O[C@]1(CC2O)C[C@H]2C(=O)N[C@]3(C(=O)NS(=O)(=O)C4(C)CC4)C[C@H]3/C=C\CCCCC[C@H](NC(=O)OC(C)(C)C)C(=O)N2C1 (stereo partly drawn) [Example 118, tert-butyl [(2S,6S,12Z,13aS,14aR,16aS)-1′-hydroxy-5′-methyl-14a-{[(1-methylcyclopropyl)sulfonyl]carbamoyl}-5,16-dioxo-1,1′,2′,5,6,7,8,9,10,11,13a,14,14a,15,16,16a-hexadecahydrospiro[cyclopropa[e]pyrrolo[1,2-a][1,4]diazacyclopentadecine-2,3′-pyrano[2,3-c]quinolin]-6-yl]carbamate]	0.027	–	47.3
Cc1nc2ccccc2c2c1O[C@]1(CC2O)C[C@H]2C(=O)N[C@]3(C(=O)NS(=O)(=O)C4(C)CC4)C[C@H]3/C=C\CCCCC[C@H](NC(=O)OC(C)C)C(=O)N2C1 (stereo partly drawn) [Example 119, propan-2-yl [(2S,6S,12Z,14aR,16aS)-1′-hydroxy-5′-methyl-14a-{[(1-methylcyclopropyl)sulfonyl]carbamoyl}-5,16-dioxo-1,1′,2′,5,6,7,8,9,10,11,13a,14,14a,15,16,16a-hexadecahydrospiro[cyclopropa[e]pyrrolo[1,2-a][1,4]diazacyclopentadecine-2,3′-pyrano[2,3-c]quinolin]-6-yl]carbamate]	0.031	~78.5	–
Cc1nc2ccccc2c2c1O[C@]1(CC2O)C[C@H]2C(=O)N[C@]3(C(=O)NS(=O)(=O)C4(C)CC4)C[C@H]3/C=C\CCCCC[C@H](NC(=O)OC(C)(C)C)C(=O)N2C1 (stereo partly drawn) [Example 120, tert-butyl [(2S,6S,12Z,13aS,14aR,16aS)-1′-hydroxy-5′-methyl-14a-{[(1-methylcyclopropyl)sulfonyl]carbamoyl}-5,16-dioxo-1,1′,2′,5,6,7,8,9,10,11,13a,14,14a,15,16,16a-hexadecahydrospiro[cyclopropa[e]pyrrolo[1,2-a][1,4]diazacyclopentadecine-2,3′-pyrano[2,3-c]quinolin]-6-yl]carbamate]	0.032	–	19
